Data from PubChem BioAssay AID2060346 (Molecular Pharmacology Branch, DTP, NCI, 2025).
Several values for one entry are separate records, joined by “and”; a condition that tells them apart may be missing. Equal values may be shown once.

System: CN0375-F725-PDC multi-cell spheroids, viability
Experiment: Anticancer human tumor CN0375-F725-PDC patient-derived colon carcinoma cell line growth inhibition [TAK]
Conditions: for viability, T/C: stronger effect = lower value
Description: Combinatorial screen of targeted agents with TAK-243 and ipatasertib in multi-cell type tumor spheroids
A high-throughput screen of multi-cell type tumor spheroids was designed to identify active combinations of targeted small molecules and TAK-243 or ipatasertib. Complex spheroids include a stromal component modeled by human endothelial cells (HUVEC) and fibroblasts modeled by human mesenchymal stem cells (MSCs). The concentration ranges selected for each drug and investigational agent were based upon clinically achievable concentrations if the clinical Cmax of the agent was known.
Compounds. The drugs and investigational agents: TAK-243 (785004), ipatasertib (767898), everolimus (733504), selumetinib (741078), bortezomib (756655), trametinib (758246), ixazomib (758254), vemurafenib (761431), dabrafenib (764134), sapanisertib (764658), alpelisib (765974), and copanlisib (816437), were obtained from the National Cancer Institute (NCI) Developmental Therapeutics Program Chemical Repository. The FDA-approved anticancer drug set is available from the NCI Developmental Therapeutics Program. […] The stock solutions were prepared in dimethyl sulfoxide (DMSO, Sigma-Aldrich, St. Louis, MO, cat. D2650) at 800-fold the tested concentration and stored at -70 degrees C prior to their use. All drugs and investigational agents were tested over a range starting from a high concentration at or near the clinical Cmax and decreasing in half-log increments. If the clinical Cmax for an agent had not been determined, the highest concentration tested was 10 microM.
NCI60 Cell Culture. NCI60 cell lines were obtained from the NCI Developmental Therapeutics Program Tumor Repository. For each lot of cells, the Repository performed Applied Biosystems AmpFLSTR Identifiler testing with PCR amplification to confirm consistency with the published Identifier STR profile for each cell line. Cells were kept in continuous culture for no more than 20 passages. The optimal seeding densities for each of the cell lines at each time point assessed were determined prior to performing the concentration response studies. Briefly, the NCI60 human tumor lines were grown as monolayers in RPMI 1640 medium supplemented with 10% FBS and 2 mmol/L L-glutamine.
An additional 2 lines were from the NCI60 cell line panel including melanomas, MALME-3M and SK-MEL-2. Pooled donor human umbilical vein endothelial cells (HUVEC, Lonza, cat. CC-2519) and human mesenchymal stem cells (hMSC, Lonza, cat. PT-2501) were purchased from Lonza (Walkersville, MD).
PDMR cell lines were grown in complete medium (DC medium): Dulbecco's modified Eagle's medium (DMEM)/F12 supplemented with 5% fetal bovine serum (FBS), 2 mM L-glutamine, 100 U/mL penicillin and 100 µg/ml streptomycin, 0.4 µg/ml hydrocortisone, 10 ng/ml epidermal growth factor (EGF) recombinant human protein, 24 µg/mL adenine, and 0.1 mg/mL primocin. During culture from frozen stock vials, PDMR cells were cultured in the same medium containing 10 µM Y-27632 (see Table 3). The PDCs were cultured in complete DMEM/F12 media without 10 microM Y-27632 dihydrochloride for at least two passages prior to the screen. The pooled donor HUVEC and hMSC were cultured in endothelial cell growth medium 2 (PromoCell, Heidelberg, Germany, cat. C-22011) and mesenchymal stem cell growth medium 2 (PromoCell, cat. C-28009), respectively. For all experiments, HUVEC and hMSC were used at passages </=5.
For the pre-screen, cell seeding densities were determined from a titration spanning the range from 5,000 to 313 cells per well. The mct-spheroids including 60% malignant cells, 25% HUVEC and 15% MSC dispensed as a mixture into U-bottom Ultra-Low Attachment 384-well plates (Corning, NY)
High-throughput Drug Combination Screening.
Prior to their inoculation into 384-well plates, malignant cells, HUVEC, and hMSC were removed from T flasks using TrypLE express (Thermo Fisher Scientific, cat. 12605036) and harvested by centrifugation for 5 min at 233 x g. […]

[1] = curve of first compound, second compound 0.3 µM
[2] = curve of first compound, second compound 0.949 µM
[3] = curve of first compound, second compound 3 µM
[4] = curve of first compound, second compound 9.49 µM
[5] = curve of first compound, second compound 30 µM
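Also: spheroids exposed to drugs for seven days.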
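For viability, T/C in this document: 100% = DMSO vehicle control wells.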

Work on CCCS(=O)(=O)Nc1ccc(F)c(C(=O)c2c[nH]c3ncc(-c4ccc(Cl)cc4)cc23)c1F + CC(C)NCC(C(=O)N1CCN(c2ncnc3c2C(C)CC3O)CC1)c1ccc(Cl)cc1 yielded an IC50 [1] of over 100000 nM, an IC50 [2] of over 100000 nM and an IC50 [3] of over 100000 nM. The IC50 [4] was 8150 nM, the IC50 [5] was 3750 nM and the viability, T/C (second compound 0.3 µM, first compound 0.316 µM) was 105%. The viability, T/C (second compound 0.3 µM, first compound 1 µM) was 120%, the viability, T/C (second compound 0.3 µM, first compound 3.16 µM) was 106% and the viability, T/C (second compound 0.3 µM, first compound 10 µM) was 66.1%. For the same compound, the viability, T/C (second compound 0.3 µM, first compound 31.6 µM) was 26.5%, the viability, T/C (second compound 0.3 µM, first compound 100 µM) was 121% and the viability, T/C (second compound 0.949 µM, first compound 0.316 µM) was 101%. It also gave a viability, T/C (second compound 0.949 µM, first compound 1 µM) of 109%, a viability, T/C (second compound 0.949 µM, first compound 3.16 µM) of 99.8% and a viability, T/C (second compound 0.949 µM, first compound 10 µM) of 58.8%. The viability, T/C (second compound 0.949 µM, first compound 31.6 µM) was 10.6%, the viability, T/C (second compound 0.949 µM, first compound 100 µM) was 105% and the viability, T/C (second compound 3 µM, first compound 0.316 µM) was 98.2%. It also gave a viability, T/C (second compound 3 µM, first compound 1 µM) of 110%, a viability, T/C (second compound 3 µM, first compound 3.16 µM) of 89% and a viability, T/C (second compound 3 µM, first compound 10 µM) of 54.7%. It also gave a viability, T/C (second compound 3 µM, first compound 31.6 µM) of 9.13%, a viability, T/C (second compound 3 µM, first compound 100 µM) of 99.8% and a viability, T/C (second compound 9.49 µM, first compound 0.316 µM) of 95.7%. The viability, T/C (second compound 9.49 µM, first compound 1 µM) was 95.5%, the viability, T/C (second compound 9.49 µM, first compound 3.16 µM) was 79.8% and the viability, T/C (second compound 9.49 µM, first compound 10 µM) was 24.1%. It also gave a viability, T/C (second compound 9.49 µM, first compound 31.6 µM) of 27.2%, a viability, T/C (second compound 9.49 µM, first compound 100 µM) of 79.5% and a viability, T/C (second compound 30 µM, first compound 0.316 µM) of 86%. The viability, T/C (second compound 30 µM, first compound 1 µM) was 82.2%, the viability, T/C (second compound 30 µM, first compound 3.16 µM) was 54.7% and the viability, T/C (second compound 30 µM, first compound 10 µM) was 13.9%. It also gave a viability, T/C (second compound 30 µM, first compound 31.6 µM) of 2.73% and a viability, T/C (second compound 30 µM, first compound 100 µM) of 52.6%.
With CCCS(=O)(=O)Nc1ccc(F)c(C(=O)c2c[nH]c3ncc(-c4ccc(Cl)cc4)cc23)c1F the viability, T/C (compound 0.316 µM) was 113% and 115%, the viability, T/C (compound 1 µM) was 122% and the viability, T/C (compound 3.16 µM) was 114% and 109%. For the same compound, the viability, T/C (compound 10 µM) was 75.1% and 65.5%, the viability, T/C (compound 31.6 µM) was 118% and 111% and the viability, T/C (compound 100 µM) was 101% and 111%. It also gave an IC50 (curve of compound) of over 100000 nM.
For Cn1cnc2c(F)c(Nc3ccc(Br)cc3Cl)c(C(=O)NOCCO)cc21 + CC(C)NCC(C(=O)N1CCN(c2ncnc3c2C(C)CC3O)CC1)c1ccc(Cl)cc1, the IC50 [1] was 260 nM, the IC50 [2] was 222 nM and the IC50 [3] was 161 nM. It also gave an IC50 [4] of 178 nM, an IC50 [5] of 71.2 nM and a viability, T/C (second compound 0.3 µM, first compound 0.00949 µM) of 91.4%. For the same compound, the viability, T/C (second compound 0.3 µM, first compound 0.03 µM) was 75.3%, the viability, T/C (second compound 0.3 µM, first compound 0.0949 µM) was 58.8% and the viability, T/C (second compound 0.3 µM, first compound 0.3 µM) was 50%. The viability, T/C (second compound 0.3 µM, first compound 0.949 µM) was 38.6%, the viability, T/C (second compound 0.3 µM, first compound 3 µM) was 30.6% and the viability, T/C (second compound 0.949 µM, first compound 0.00949 µM) was 83.5%. It also gave a viability, T/C (second compound 0.949 µM, first compound 0.03 µM) of 78.6%, a viability, T/C (second compound 0.949 µM, first compound 0.0949 µM) of 57.6% and a viability, T/C (second compound 0.949 µM, first compound 0.3 µM) of 48.3%. For the same compound, the viability, T/C (second compound 0.949 µM, first compound 0.949 µM) was 36%, the viability, T/C (second compound 0.949 µM, first compound 3 µM) was 31.1% and the viability, T/C (second compound 3 µM, first compound 0.00949 µM) was 79.6%. For the same compound, the viability, T/C (second compound 3 µM, first compound 0.03 µM) was 72%, the viability, T/C (second compound 3 µM, first compound 0.0949 µM) was 56.9% and the viability, T/C (second compound 3 µM, first compound 0.3 µM) was 41.4%. For the same compound, the viability, T/C (second compound 3 µM, first compound 0.949 µM) was 34.2%, the viability, T/C (second compound 3 µM, first compound 3 µM) was 29.3% and the viability, T/C (second compound 9.49 µM, first compound 0.00949 µM) was 77.8%. For the same compound, the viability, T/C (second compound 9.49 µM, first compound 0.03 µM) was 69.4%, the viability, T/C (second compound 9.49 µM, first compound 0.0949 µM) was 58.2% and the viability, T/C (second compound 9.49 µM, first compound 0.3 µM) was 42.7%. The viability, T/C (second compound 9.49 µM, first compound 0.949 µM) was 32.7%, the viability, T/C (second compound 9.49 µM, first compound 3 µM) was 23.2% and the viability, T/C (second compound 30 µM, first compound 0.00949 µM) was 66%. The viability, T/C (second compound 30 µM, first compound 0.03 µM) was 64.2%, the viability, T/C (second compound 30 µM, first compound 0.0949 µM) was 43.5% and the viability, T/C (second compound 30 µM, first compound 0.3 µM) was 31.6%. For the same compound, the viability, T/C (second compound 30 µM, first compound 0.949 µM) was 22.1% and the viability, T/C (second compound 30 µM, first compound 3 µM) was 16.1%.
